# From patent publication US6290993A, “Compositions containing mimosa phenolic compounds” (E-L Management Corp., priority 1999, dated 2001)
# Tested on: Normal human dermal fibroblasts
# Assay: Collagen-increasing activity, ELISA for collagen type 1 or procollagen type 1
# Format: cell-based
# Settings: 5 ng/ml, positive control, 4 days incubation
# Method: Normal human dermal fibroblasts are seeded and grown to confluence in a 96-well plate prior to being treated with M. pudica extract or fractions thereof, prepared by solvent/solvent extractions (heptane/70% ethanol, ethyl acetate/water) at various concentrations in complete medium. Media alone serves as negative control and TGF-β serves as positive control. The plates are incubated for 4 days at 37° C./5% CO2 before the supernatants are harvested and stored at -70° C. until an ELISA is performed. Antibodies to collagen type 1 or procollagen type 1 are used for ELISA analysis to determine collagen levels.
substance,measurement,value
TGF-β,increase in collagen levels,46%
